Tests used:
DLD1 WT cells = experiment: DLD1 viability assay (CellTiter-Glo, 7 days), DLD1 WT; type: cell-based; details: Homo sapiens, DLD-1, 168 h
Procedure: (§1) The seeding densities are pre-determined from the growth curve kinetics performed to ensure log linear phase of cell growth for these 2 cell lines. These assay plates are then placed in the incubator at 37° C., 5% CO2, relative humidity>90% for a few hours before addition of test compounds. Compounds are dispensed using the Tecan HPD300 or Echo based on the plate map in the appropriate wells of the 384-well plates. […] After addition of the test compounds, the plates are incubated at 37° C., 5% CO2, relative humidity>90% for 7 days. CellTiter-Glo (Promega Cat. No. G7573), ATP detection reagent is prepared according to manufacturer's specifications. Cell assay plates are removed from incubator and bring to room temperature (RT) by letting them sit at bench top for at least 15 min. Using the MultiDrop liquid handler or a multichannel pipette, 35 μL/well of CTG is added and the plates are then placed shakes for 5 seconds, RT. These plates are then incubated for 30 minutes in the dark at RT before measuring luminescence using Spectramax/Enspire/Ensight/Envision/PheraSTAR.

DLD1 BRCA2 (−/−) cells = experiment: DLD1 viability assay (CellTiter-Glo, 7 days), DLD1 BRCA2 (−/−); type: cell-based; details: Homo sapiens, DLD-1, 168 h, read-out: Viability IC50 (μM) DLD1 BRCA2 null
Procedure: as §1

| SMILES | IC50 (DLD1 WT cells) [µM] | IC50 (DLD1 BRCA2 (−/−) cells) [µM] |
| --- | --- | --- |
| COc1cnc(Cl)cc1-c1cc(C)ncc1C(=O)Nc1nc2ncc(C3=CCC(OC(F)(F)F)CC3)nc2s1 (centres unmarked) [Example 420, 2′-chloro-5′-methoxy-6-methyl-N-(6-(4-(trifluoromethoxy)cyclohex-1-en-1-yl)thiazolo[4,5-b]pyrazin-2-yl)-[4,4′-bipyridine]-3-carboxamide] | 7.5 to 10 | 0.001 to 0.1 |
| COc1cnc(Cl)cc1-c1cc(C)ncc1C(=O)Nc1nc2ncc(N3CCOC(C(F)F)C3)nc2s1 (centres unmarked) [Example 429, 2′-chloro-N-(6-(2-(difluoromethyl)morpholino)thiazolo[4,5-b]pyrazin-2-yl)-5′-methoxy-6-methyl-[4,4′-bipyridine]-3-carboxamide] | > 10 | 0.001 to 0.1 |
| COc1cnc(Cl)cc1-c1cc(C)ncc1C(=O)Nc1nc2ncc(N3CCO[C@H](C(F)(F)F)C3)nc2s1 [Example 430, (S)-2′-chloro-5′-methoxy-6-methyl-N-(6-(2-(trifluoromethyl)morpholino)thiazolo[4,5-b]pyrazin-2-yl)-[4,4′-bipyridine]-3-carboxamide] | > 10 | 0.001 to 0.1 |
| COc1cnc(Cl)cc1-c1cc(C)ncc1C(=O)Nc1nc2ncc([C@@H]3CCO[C@@H](C)C3)nc2s1 [Example 433, 2′-chloro-5′-methoxy-6-methyl-N-(6-((2S,4R)-2-methyltetrahydro-2H-pyran-4-yl)thiazolo[4,5-b]pyrazin-2-yl)-[4,4′-bipyridine]-3-carboxamide] | > 10 | 0.001 to 0.1 |
| COc1cnc(Cl)cc1-c1cc(C)ncc1C(=O)Nc1nc2ncc(N3C[C@H](C)O[C@@H](C)C3)nc2s1 [Example 436, 2′-chloro-N-(6-((2S,6S)-2,6-dimethylmorpholino)thiazolo [4,5-b]pyrazin-2-yl)-5′-methoxy-6-methyl-[4,4′-bipyridine]-3-carboxamide] | > 10 | 0.001 to 0.1 |
| COc1cnc(Cl)cc1-c1cc(C)ncc1C(=O)Nc1nc2ncc(N3CCO[C@@H](C(F)(F)F)C3)nc2s1 [Example 440, (R)-2′-chloro-5′-methoxy-6-methyl-N-(6-(2-(trifluoromethyl)morpholino)thiazolo[4,5-b]pyrazin-2-yl)-[4,4′-bipyridine]-3-carboxamide] | > 10 | 0.001 to 0.1 |
| COc1cnc(Cl)cc1-c1cc(C)ncc1C(=O)Nc1nc2ncc(C3=CCOC(C)C3)nc2s1 (centres unmarked) [Example 443, 2′-chloro-5′-methoxy-6-methyl-N-(6-(2-methyl-3,6-dihydro-2H-pyran-4-yl)thiazolo[4,5-b]pyrazin-2-yl)-[4,4′-bipyridine]-3-carboxamide] | > 10 | 0.001 to 0.1 |
| COc1cnc(Cl)cc1-c1cc(C2CC2)ncc1C(=O)Nc1nc2ncc(-c3ccnc(C)c3)nc2s1 [Example 445, 2′-chloro-6-cyclopropyl-5′-methoxy-N-(6-(2-methylpyridin-4-yl)thiazolo[4,5-b]pyrazin-2-yl)-[4,4′-bipyridine]-3-carboxamide] | > 10 | 0.001 to 0.1 |
| COc1cnc(Cl)cc1-c1cc(C)ncc1C(=O)Nc1nc2ncc(N3CCC4(CCCO4)CC3)nc2s1 [Example 459, N-(6-(1-oxa-8-azaspiro[4.5]decan-8-yl)thiazolo[4,5-b]pyrazin-2-yl)-2′-chloro-5′-methoxy-6-methyl-[4,4′-bipyridine]-3-carboxamide] | > 10 | 0.001 to 0.1 |
| COc1cnc(Cl)cc1-c1cc(C)ncc1C(=O)Nc1nc2ncc(N3CCC(OC4CC4)CC3)nc2s1 [Example 462, 2′-chloro-N-(6-(4-cyclopropoxypiperidin-1-yl)thiazolo[4,5-b]pyrazin-2-yl)-5′-methoxy-6-methyl-[4,4′-bipyridine]-3-carboxamide] | > 10 | 0.001 to 0.1 |
| COc1cnc(Cl)cc1-c1cc(C)ncc1C(=O)Nc1nc2ncc(N3CCC(C4COC4)CC3)nc2s1 [Example 464, 2′-chloro-5′-methoxy-6-methyl-N-(6-(4-(oxetan-3-yl)piperidin-1-yl)thiazolo[4,5-b]pyrazin-2-yl)-[4,4′-bipyridine]-3-carboxamide] | > 10 | 0.001 to 0.1 |
| COc1cnc(Cl)cc1-c1cc(C)ncc1C(=O)Nc1nc2ncc(N3CCC(CC#N)CC3)nc2s1 [Example 467, 2′-chloro-N-(6-(4-(cyanomethyl)piperidin-1-yl)thiazolo[4,5-b]pyrazin-2-yl)-5′-methoxy-6-methyl-[4,4′-bipyridine]-3-carboxamide] | > 10 | 0.001 to 0.1 |
| COc1cnc(Cl)cc1-c1cc(C)ncc1C(=O)Nc1nc2ncc(N3CCN(CC(F)(F)F)CC3)nc2s1 [Example 471, 2′-chloro-5′-methoxy-6-methyl-N-(6-(4-(2,2,2-trifluoroethyl)piperazin-1-yl)thiazolo[4,5-b]pyrazin-2-yl)-[4,4′-bipyridine]-3-carboxamide] | > 10 | 0.001 to 0.1 |
| COc1cnc(Cl)cc1-c1cc(C)ncc1C(=O)Nc1nc2ncc(N3CCC(C(F)(F)F)CC3)nc2s1 [Example 472, 2′-chloro-5′-methoxy-6-methyl-N-(6-(4-(trifluoromethyl)piperidin-1-yl)thiazolo[4,5-b]pyrazin-2-yl)-[4,4′-bipyridine]-3-carboxamide] | 5 to 7.5 | 0.001 to 0.1 |

Second part, the compound after the results:

| IC50 (DLD1 WT cells) [µM] | IC50 (DLD1 BRCA2 (−/−) cells) [µM] | SMILES |
| --- | --- | --- |
| > 10 | 0.001 to 0.1 | COc1cnc(Cl)cc1-c1cc(C)ncc1C(=O)Nc1nc2ncc(N3C[C@H](C)OC[C@@H]3C)nc2s1 [Example 412, 2′-chloro-N-(6-((2S,5S)-2,5-dimethylmorpholino)thiazolo [4,5-b]pyrazin-2-yl)-5′-methoxy-6-methyl-[4,4′-bipyridine]-3-carboxamide] |
| > 10 | 0.001 to 0.1 | COc1ccc(C#N)cc1-c1cc(C)ncc1C(=O)Nc1nc2ncc(C3=CCC(CO)CC3)nc2s1 (centres unmarked) [Example 421, 4-(5-cyano-2-methoxyphenyl)-N-(6-(4-(hydroxymethyl)cyclohex-1-en-1-yl)thiazolo[4,5-b]pyrazin-2-yl)-6-methylnicotinamide] |
| > 10 | 0.001 to 0.1 | COc1cnc(Cl)cc1-c1cc(C)ncc1C(=O)Nc1nc2ncc(N3C[C@H](C)OC[C@H]3C)nc2s1 [Example 422, 2′-chloro-N-(6-((2S,5R)-2,5-dimethylmorpholino)thiazolo [4,5-b]pyrazin-2-yl)-5′-methoxy-6-methyl-[4,4′-bipyridine]-3-carboxamide] |
| > 10 | 0.001 to 0.1 | COc1cnc(Cl)cc1-c1cc(C)ncc1C(=O)Nc1nc2ncc(N3CCOC4CCCC43)nc2s1 (centres unmarked) [Example 424, 2′-chloro-N-(6-(hexahydrocyclopenta[b][1, 4]oxazin-4(4aH)-yl)thiazolo[4,5-b]pyrazin-2-yl)-5′-methoxy-6-methyl-[4,4′-bipyridine]-3-carboxamide] |
| > 10 | 0.001 to 0.1 | COc1cnc(Cl)cc1-c1cc(C)ncc1C(=O)Nc1nc2ncc(C3CCN(CC(F)(F)F)CC3)nc2s1 [Example 432, 2′-chloro-5′-methoxy-6-methyl-N-(6-(1-(2,2,2-trifluoroethyl)piperidin-4-yl)thiazolo[4,5-b]pyrazin-2-yl)-[4,4′-bipyridine]-3-carboxamide] |
| > 10 | 0.001 to 0.1 | COc1cnc(Cl)cc1-c1cc(C)ncc1C(=O)Nc1nc2ncc(-c3cccc(C(F)F)n3)nc2s1 [Example 446, 2′-chloro-N-(6-(6-(difluoromethyl)pyridin-2-yl)thiazolo[4,5-b]pyrazin-2-yl)-5′-methoxy-6-methyl-[4,4′-bipyridine]-3-carboxamide] |
| > 10 | 0.001 to 0.1 | COc1cnc(Cl)cc1-c1cc(C)ncc1C(=O)Nc1nc2ncc(N3CC[C@H](OC)[C@@H](F)C3)nc2s1 [Example 452, 2′-chloro-N-(6-((3S,4S)-3-fluoro-4-methoxypiperidin-1-yl)thiazolo[4,5-b]pyrazin-2-yl)-5′-methoxy-6-methyl-[4,4′-bipyridine]-3-carboxamide] |
| > 10 | 0.001 to 0.1 | CNC1CCN(c2cnc3nc(NC(=O)c4cnc(C)cc4-c4cc(Cl)ncc4OC)sc3n2)CC1(F)F (centres unmarked) [Example 455, 2′-chloro-N-(6-(3,3-difluoro-4-(methylamino)piperidin-1-yl)thiazolo[4,5-b]pyrazin-2-yl)-5′-methoxy-6-methyl-[4,4′-bipyridine]-3-carboxamide] |
| > 10 | 0.001 to 0.1 | COc1cnc(Cl)cc1-c1cc(C)ncc1C(=O)Nc1nc2ncc(N3CCC(C)(O)C(F)C3)nc2s1 (centres unmarked) [Example 465, 2′-chloro-N-(6-(3-fluoro-4-hydroxy-4-methylpiperidin-1-yl)thiazolo[4,5-b]pyrazin-2-yl)-5′-methoxy-6-methyl-[4,4′-bipyridine]-3-carboxamide] |
| 7.5 to 10 | 0.001 to 0.1 | COc1cnc(Cl)cc1-c1cc(C)ncc1C(=O)Nc1nc2ncc(N3CCC(C4CC4)CC3)nc2s1 [Example 466, 2′-chloro-N-(6-(4-cyclopropylpiperidin-1-yl)thiazolo[4,5-b]pyrazin-2-yl)-5′-methoxy-6-methyl-[4,4′-bipyridine]-3-carboxamide] |
| 5 to 7.5 | 0.001 to 0.1 | COc1cnc(Cl)cc1-c1cc(C)ncc1C(=O)Nc1nc2ncc(N3CCC(C(C)(C)C#N)CC3)nc2s1 [Example 468, 2′-chloro-N-(6-(4-(2-cyanopropan-2-yl)piperidin-1-yl)thiazolo[4,5-b]pyrazin-2-yl)-5′-methoxy-6-methyl-[4,4′-bipyridine]-3-carboxamide] |

From US20260015360A1 (MOMA Therapeutics, Inc., priority 2023, published 2026)
